According to patent publication US20070010670A1, “Nitrogen-containing fused ring compounds and use thereof” (Japan Tobacco Inc., priority 2004, published 2007):

Assays:
URAT1 [1] = biological target: T1, URAT1 (Homo sapiens, UniProt Q96S37); test: Uric acid transport inhibitory test using human URAT1-expressing cells; type: cell-based; design: Human URAT1 full length cDNA was subcloned to expression vector pcDNA3.1; expressed in transfected cells; host or cells: HEK293 cells (pcDNA3.1, geneticin-selected); details: human URAT1 expressing HEK293 cells, 14C-labeled uric acid uptake 5 min, room temperature; read-out: hURAT1 (IC50, concentration necessary for inhibiting the uric acid transport rate by 50%)
T1 sequence (Q96S37 1-553): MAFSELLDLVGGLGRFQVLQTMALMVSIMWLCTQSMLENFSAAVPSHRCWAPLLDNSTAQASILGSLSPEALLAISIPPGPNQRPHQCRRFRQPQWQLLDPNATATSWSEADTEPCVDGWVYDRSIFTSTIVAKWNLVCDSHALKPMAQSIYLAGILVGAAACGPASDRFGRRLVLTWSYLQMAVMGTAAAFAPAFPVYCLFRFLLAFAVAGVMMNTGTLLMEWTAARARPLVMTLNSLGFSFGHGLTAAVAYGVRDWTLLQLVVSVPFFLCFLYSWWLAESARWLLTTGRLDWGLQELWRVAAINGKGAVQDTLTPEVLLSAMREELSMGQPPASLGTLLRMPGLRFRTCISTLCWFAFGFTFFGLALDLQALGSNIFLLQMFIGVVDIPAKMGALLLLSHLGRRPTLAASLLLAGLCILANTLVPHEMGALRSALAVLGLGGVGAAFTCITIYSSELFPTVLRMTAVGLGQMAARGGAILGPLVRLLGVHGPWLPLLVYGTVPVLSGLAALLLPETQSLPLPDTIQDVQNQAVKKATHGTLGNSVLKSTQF
Source text: Human URAT1 full length cDNA was subcloned to expression vector pcDNA3.1 and human URAT1 gene was transfected into human embryonic kidney derived cell line (HEK293 cells) by liposome method using Lipofectamine2000. Simultaneously, HEK293 cells transfected with expression vector pcDNA3.1 alone (hereinafter mock cells) were also produced. HEK293 cells expressing human URAT1 gene or mock cells were selected with geneticin resistance as an index. The functional expression of human URAT1 gene was confirmed by a method similar to the following method, using transport of uric acid labeled with ^14C into the cells as an index.
Human URAT1 expressing HEK293 cells or mock cells were cultured in Dulbecco's modified Eagle's MEM medium (high glucose) containing 10% fetal bovine serum, 0.5 mg/mL geneticin sulfate, 100 units/mL penicillin and 100 μg/mL streptomycin under the conditions of 37° C. and 5% CO2 in an incubator. The cells were plated in a 96 well plate (poly-D-Lysine coated) at 1×10^5 cells/well and the following uric acid transport inhibitory test was performed 24 hr later. This test was performed at room temperature.
After the medium was removed by aspiration from each well, the cells were washed once with Hank's Balanced Salt Solution (HBSS) and preincubated with HBSS ([…]) for 5 min. HBSS was aspirated and an assay buffer (wherein NaCl in the above-mentioned HBSS had been substituted with Na-gluconate) containing various concentrations of the Example compound and a radioactive ligand (uric acid labeled with 14C; final concentration […]) was added to each well at […] and an uptake reaction was carried out for 5 min. After the reaction, the cells were washed twice with ice-cold HBSS ([…]), and Microscin ti TM 20 (PerkinElmer) was added at […]. The cells were lysed by stirring and the radioactivity of each well was measured in a liquid scintillation counter (TOP COUNT, Packard).
The uric acid transport rate (%) of the Example compound at each concentration was calculated relative to the radioactivity (difference in radioactivity between human URAT1 expressing HEK293 cells and mock cells without addition of Example compound (DMSO addition)) showing URAT1 specific uric acid transport as 100%, and the concentration (IC50) of the Example compound necessary for inhibiting the uric acid transport rate by 50% was determined. In Table-Table , “+++” means IC50 value of less than 100 nM, “++” means IC50 value of 100 nM to less than 1000 nM, and “+” means IC50 value of 1000 nM to less than 3000 nM.

CYP2C9 = biological target: T2, CYP2C9 (Homo sapiens, UniProt P11712); test: CYP inhibitory test using human liver microsome; type: in vitro ADME; details: model substrate diclofenac, 37° C. 10 min, read-out: CYP2C9 inhibition IC50
T2 construct: Human liver microsome (20 mg protein/mL, 5 μL, Xenotech LLC, purchased from Lenexa KS); tissue Xenotech LLC; host or cells: human liver microsome
T2 sequence (P11712 whole entry): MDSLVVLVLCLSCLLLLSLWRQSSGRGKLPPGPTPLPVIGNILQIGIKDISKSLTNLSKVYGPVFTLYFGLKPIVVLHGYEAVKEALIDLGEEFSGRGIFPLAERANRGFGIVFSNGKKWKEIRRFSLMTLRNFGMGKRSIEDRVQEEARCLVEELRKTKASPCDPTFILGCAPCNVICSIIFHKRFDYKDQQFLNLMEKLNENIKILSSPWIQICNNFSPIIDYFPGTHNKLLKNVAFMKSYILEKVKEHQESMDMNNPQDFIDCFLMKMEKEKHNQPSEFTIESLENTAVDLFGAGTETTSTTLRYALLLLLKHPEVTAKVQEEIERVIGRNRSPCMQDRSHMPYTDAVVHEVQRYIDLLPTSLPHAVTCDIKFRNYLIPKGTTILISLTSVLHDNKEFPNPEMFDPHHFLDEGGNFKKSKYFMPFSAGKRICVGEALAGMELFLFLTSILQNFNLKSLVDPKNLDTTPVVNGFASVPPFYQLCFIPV
In short: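 Pooled human liver microsomes in 100 mM potassium phosphate pH 7.4 with NADPH-regenerating system, preincubated with compound 5 min at 37 °C; diclofenac as CYP2C9 substrate (2 mM stock), 10 min at 37 °C. Metabolite quantified by LC/MS/MS; IC50 relative to DMSO-only activity as 100%.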

CYP3A4 = CYP3A4 (Homo sapiens, UniProt P08684); details: cited from earlier work
Chain of CYP3A4 (P08684 whole entry): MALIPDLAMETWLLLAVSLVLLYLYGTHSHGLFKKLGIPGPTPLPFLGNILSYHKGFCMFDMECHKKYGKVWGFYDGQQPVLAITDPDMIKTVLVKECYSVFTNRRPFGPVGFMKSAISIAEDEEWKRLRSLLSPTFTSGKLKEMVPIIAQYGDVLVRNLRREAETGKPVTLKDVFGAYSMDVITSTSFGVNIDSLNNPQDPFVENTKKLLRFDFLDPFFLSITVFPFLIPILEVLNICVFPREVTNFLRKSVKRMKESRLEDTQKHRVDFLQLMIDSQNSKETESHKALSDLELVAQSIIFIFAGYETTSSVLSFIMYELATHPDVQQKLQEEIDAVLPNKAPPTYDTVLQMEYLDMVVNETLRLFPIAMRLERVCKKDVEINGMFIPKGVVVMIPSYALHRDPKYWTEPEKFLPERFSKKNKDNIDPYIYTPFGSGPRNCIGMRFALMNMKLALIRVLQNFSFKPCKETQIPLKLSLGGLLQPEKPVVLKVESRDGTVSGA

CYP2C8 = biological target: T3, CYP2C8 (Homo sapiens, UniProt P10632); details: cited from earlier work
T3 sequence (P10632 1-490): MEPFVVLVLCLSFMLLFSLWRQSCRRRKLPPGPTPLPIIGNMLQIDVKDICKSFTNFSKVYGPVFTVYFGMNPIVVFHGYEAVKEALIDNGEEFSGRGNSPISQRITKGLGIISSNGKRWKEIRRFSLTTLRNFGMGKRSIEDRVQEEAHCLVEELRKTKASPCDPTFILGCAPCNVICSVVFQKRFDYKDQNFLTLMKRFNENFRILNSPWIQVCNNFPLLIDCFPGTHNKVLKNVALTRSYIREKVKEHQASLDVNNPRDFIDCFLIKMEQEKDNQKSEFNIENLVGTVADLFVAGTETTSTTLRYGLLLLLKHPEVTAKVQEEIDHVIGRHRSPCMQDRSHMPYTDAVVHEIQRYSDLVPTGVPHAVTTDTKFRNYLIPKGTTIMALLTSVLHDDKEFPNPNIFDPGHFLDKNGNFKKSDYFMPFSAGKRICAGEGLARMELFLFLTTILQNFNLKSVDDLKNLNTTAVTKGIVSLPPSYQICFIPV

URAT1 [2] = biological target: T1, URAT1; design: host or cells: Xenopus laevis oocyte expression system; details: Xenopus laevis oocyte expression system; cited from earlier work
CYP2C19 = CYP2C19 (Homo sapiens, UniProt P33261); details: cited from earlier work
Chain of CYP2C19 (P33261 whole entry): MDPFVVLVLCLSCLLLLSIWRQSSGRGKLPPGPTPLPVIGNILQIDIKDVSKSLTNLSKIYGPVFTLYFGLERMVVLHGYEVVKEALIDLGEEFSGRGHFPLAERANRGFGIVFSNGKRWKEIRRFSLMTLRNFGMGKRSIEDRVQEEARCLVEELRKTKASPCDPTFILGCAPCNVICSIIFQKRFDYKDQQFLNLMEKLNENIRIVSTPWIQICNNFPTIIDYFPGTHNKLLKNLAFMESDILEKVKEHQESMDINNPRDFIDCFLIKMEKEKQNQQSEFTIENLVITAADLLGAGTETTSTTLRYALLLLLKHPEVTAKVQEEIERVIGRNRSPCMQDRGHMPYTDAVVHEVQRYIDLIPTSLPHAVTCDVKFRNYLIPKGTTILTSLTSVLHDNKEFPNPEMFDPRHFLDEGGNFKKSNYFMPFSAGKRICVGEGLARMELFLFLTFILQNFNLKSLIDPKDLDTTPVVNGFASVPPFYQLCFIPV

Question: With `O=C(c1cc(Cl)c(O)c(Cl)c1)N1CC[S+]([O-])c2ccccc21` (stereo not drawn) [Example 9, (3,5-dichloro-4-hydroxyphenyl)-(1-oxo-2,3-dihydro-1H-1λ^4-benzo[1,4]thiazin-4-yl)-methanone] as the compound, how does the IC50 (URAT1 [1]) read?
Answer: Its IC50 is 1 to 3 µM.

Question: And the IC50 (CYP2C9)?
Answer: Its IC50 is 39 µM.

Question: With `Nc1c(Cl)cc(C(=O)N2CCOc3ccccc32)cc1Cl` [Example 28, (4-amino-3,5-dichlorophenyl)-(2,3-dihydrobenzo[1,4]oxazin-4-yl)-methanone] as the compound, how does the IC50 (URAT1 [1]) read?
Answer: Its IC50 is 0.1 to 1 µM.

Question: And the IC50 (CYP2C9)?
Answer: The IC50 was 24 µM.

Question: What does the source list for `CC1Cc2ccccc2N1C(=O)c1cc(Cl)c(O)c(Cl)c1` (stereo not drawn) [Example 76, (3,5-dichloro-4-hydroxyphenyl)-(2-methyl-2,3-dihydroindol-1-yl)-methanone]?
Answer: IC50 (URAT1 [1]): 0.1 to 1 µM; IC50 (CYP2C9): 28 µM

Question: For `CC1COc2ccccc2N1C(=O)c1cc(Cl)c(O)c(Cl)c1` (stereo not drawn) [Example 93, (3,5-dichloro-4-hydroxyphenyl)-(3-methyl-2,3-dihydrobenzo[1,4]oxazin-4-yl)-methanone], which IC50 (URAT1 [1]) is on record?
Answer: The IC50 was 0.1 to 1 µM.

Question: What about the IC50 (CYP2C9) of the same compound?
Answer: Its IC50 is > 50 µM.

Question: For `CS(=O)(=O)Nc1c(Cl)cc(C(=O)N2CCOc3ccccc32)cc1Cl` [Example 94, N-[2,6-dichloro-4-(2,3-dihydrobenzo[1,4]oxazine-4-carbonyl)phenyl]methanesulfonamide], which IC50 (URAT1 [1]) is on record?
Answer: Its IC50 is 0.1 to 1 µM.

Question: What about the IC50 (CYP2C9) of the same compound?
Answer: Its IC50 is 6 µM.

Question: For `CCc1oc2ccccc2c1C(=O)c1cc(Br)c(O)c(Br)c1` [benzbromarone], which “inhibitory action on CYP3A4” value (CYP3A4) is on record?
Answer: Its value is “strong inhibitory action”.

Question: What about the “inhibitory action on CYP2C8” value (CYP2C8) of the same compound?
Answer: Its value is “strong inhibitory action”.

Question: What about the “uric acid uptake via URAT1” value (URAT1 [2]) of the same compound?
Answer: Its value is “inhibited”.

Question: And the “inhibitory action on CYP2C19” value (CYP2C19)?
Answer: Its value is “strong inhibitory action”.

Question: For `CCCN(CCC)S(=O)(=O)c1ccc(C(=O)O)cc1` [probenecid], which “uric acid uptake via URAT1” value (URAT1 [2]) is on record?
Answer: Its value is “inhibited”.
